Data published in patent US20160251702A1, “Process and Kit for Predicting Antibiotic Resistance and Susceptibility of Bacteria” (priority 2015, published 2016).
Read-outs that look alike come from different tables or passages of the source.

How the values were obtained:
Format in all cases: cell-based
[1] = system: Escherichia coli; assay: Disk diffusion susceptibility of the reference set of clinical E. coli isolates split by 7-SNP typing; details: for prevalence of resistance: total E. coli study population
Description: This example illustrates setting up a reference database consisting of 2,559 random single-patient clinical E. coli isolates of primarily extra-intestinal origin, at eight international clinical microbiology laboratories. […] Conventional MLST (multi-locus sequence typing) was performed either in full using the standard scheme of 7 MLST loci (adk, fumC, gyrB, icd, mdh, purA, and recA) (Wirth et al., 2006. Sex and virulence in Escherichia coli: an evolutionary perspective. Mol, Microbiol, 60:1136-1151.) or as a combination of partial MLST and fumC/fimH typing, as described previously (Tchesnokova et al. 2013. Predictive diagnostics for Escherichia coli infections based on the clonal association of antimicrobial resistance and clinical outcome. J. Clin. Microbiol. 51:2991-2999). Some ST complexes, as identified by the eBURST v3 software, were defined operationally as a single ‘ST’ and were designated based on the ST identified as the cluster's founder (see Table 5) (Feil et al. 2004. eBURST: inferring patterns of evolutionary descent among clusters of related bacterial genotypes from multilocus sequence typing data. J. Bacteriol. 186:1518-1530).
Susceptibility to seven antibiotics was determined using a standardized disk diffusion method according to Clinical and Laboratory Standards Institute guidelines.

[2] = system: E. coli; assay: Antibiotic resistance of the HMO reference collection of E. coli (Lookup Table); details: Reference set isolates (1227, 2010-2013)
Description: Both septatypes/clonotypes and antimicrobial profiles were identified.
In total, 1227 E. coli isolated from the HMO (Group Health) clinical lab in 2010-2013 were analyzed. All had their clonotype type determined and resistance to antibiotics tested. Septatypes were deduced from CH types (clonotypes). Red indicates resistance >30%. Yellow: more than 15% but less than 30%. Green: less than 15%.

[3] = system: E. coli; assay: Antibiotic resistance of E. coli isolates from the field trial (Group Health Urgent Care); details: for overall resistance level: Field trial isolates; for Resistance rate in GH UC E. coli: field trial, Group Health Urgent Care
Description: The disclosed test kit and process was conducted on urinalysis-positive urine samples on-site at the HMO urgent care clinical laboratory. All urine samples obtained at Urgent Care facility were tested by the 7-SNP-based CLT(clonotyping) test and by a standard E. coli culturing test.
In total, 750 urinalysis-positive samples from the HMO urgent care lab were processed in CLT test and standard culturing test.
The E. coli clonotypes identified in the field study (out of 750 samples, see above) were compared to a reference collection of E. coli to (1) compare the clonotypes distribution, (2) compare the overall resistance profile, and (3) use the reference collection to predict if antibiotics can or cannot be allowed for use in each case in the field study (as a Lookup Table). Further, the prediction from (3) was compared to actual resistance of individual isolates and to clinical data regarding the prescription of antibiotics in each case. From this we can see if the implementation of the CLT test would improve the choice of antibacterial therapy.
For clone-based prediction of bacterial resistance of field study isolates we used a 15% resistance as a cutoff for rejection of an antibiotic.

[4] = system: E. coli
Description: This example illustrates implementation of clonal testing in a healthcare community microbiology laboratory. We assessed the presence of E. coli sub-strains ST131 and ST69 (n=619) E. coli positive cultures. […] The tests were conducted to identify ST69 of ST131 genes specific to each clonotype on bacterial DNA isolated from patient urine specimens using RT-PCR instrumentation.

[5] = system: E. coli; assay: CH clonotypes correlated with antibiotic susceptibility profiles of urine E. coli isolates
Excerpt: This example illustrates a high-resolution fumC/fimH (CH) clonotyping scheme for E. coli based on sequence variations within these highly-variable omnipresent genes for fumarase and fimbrial adhesin of E. coli, respectively. We correlated CH clonotypes with antibiotic susceptibility profiles among 1,600 urine E. coli isolates from clinical microbiology laboratories in Seattle (Group Health, UW, Harborview, and Children's Hospitals), Minneapolis (VA Medical Center), and Munster, Germany (University Clinic).
We next determined how knowledge of cumulative clonotype vs. overall (species) antibiogram could reduce potential ‘drug-bug’ mismatches during empirical antibiotic selection. We used the IDSA-recommended 80% susceptibility cutoff level to allow the use of specific antibiotic for each clonotype.

CO/N=C(\C(=O)N[C@@H]1C(=O)N2C(C(=O)O)=C(CSc3nc(=O)c(=O)[nH]n3C)CS[C@H]12)c1csc(N)n1 [ceftriaxone]
prevalence of resistance [1]: 9% | overall resistance level [2]: 3.7 | overall resistance level [3]: 4.8

CC1(C)S[C@@H]2[C@H](NC(=O)[C@H](N)c3ccccc3)C(=O)N2[C@H]1C(=O)O [Ampicillin, ampicillin]
overall resistance level [2]: 44.7 | overall resistance level [3]: 55.6

trimethoprim/sulfamethoxazole
resistant ([4]; clonotype ST69): greater than 40% | resistant ([4]; clonotype ST131): greater than 40% | Resistance ([4]; study group, n=619 E. coli positive cultures): 15% | resistance in words ([1]; septatype 261 (ST69)): highly susceptible | resistance in words ([1]; septatype 560 (ST131-H41)): highly resistant | resistance in words ([1]; septatype 561 (ST131-H30)): highly resistant | prevalence of resistance [1]: 28% | overall resistance level [2]: 21.4 | overall resistance level [3]: 25.8 | Resistance rate in GH UC E. coli [3]: 25.7%

amoxicillin/clavulanate
prevalence of resistance [1]: 28% | overall resistance level [2]: 15.4 | overall resistance level [3]: 21.2 | Resistance rate in GH UC E. coli [3]: 25.6%

Cc1nnc(SCC2=C(C(=O)O)N3C(=O)[C@@H](NC(=O)Cn4cnnn4)[C@H]3SC2)s1 [cefazolin]
Total resistant ([5]; 1,600 urine E. coli isolates): 19.7% | % Resistant among Allowed ([5]; isolates of clonotypes allowed for treatment): 10.7% | % Resistant among Rejected ([5]; isolates of clonotypes rejected for treatment): 32.0% | prevalence of resistance [1]: 23% | overall resistance level [2]: 15.5 | overall resistance level [3]: 12.2

O=C1CN(/N=C/c2ccc([N+](=O)[O-])o2)C(=O)N1 [nitrofurantoin]
prevalence of resistance [1]: 11% | overall resistance level [2]: 1.3 | overall resistance level [3]: 2.9 | Resistance rate in GH UC E. coli [3]: 2.9%
